Experimental findings from patent publication US8227469B2, “Vanilloid receptor ligands and their use in treatments” (Amgen Inc., priority 2004, dated 2012) are described below.

Molecules are shown by their SMILES. A value given as a limit tells only on which side of the number the result lay.

In turn, `C[C@H](c1ccc(F)cc1)N1CCN(c2cc(Nc3ccc4cccnc4c3)ncn2)CC1` [Example 4, (6-{4-[(1R)-1-(4-Fluorophenyl)-ethyl]-piperazin-1-yl}-pyrimidin-4-yl)-quinolin-7-yl-amine] displayed a melting point of 206 to 207 °C.
To `CC(=O)Nc1nc2c(Oc3cc(C4=CCC(C(C)(C)C)CC4)ncn3)cccc2s1` (stereo not drawn) [Example 8, N-{4-[6-(4-tert-Butyl-cyclohex-1-enyl)-pyrimidin-4-yloxy]-benzothiazol-2-yl}-acetamide] belongs > 200 °C (dec.); to `C[C@@H](c1ccc(F)cc1)N1CCN(c2cc(Nc3ccc4cccnc4c3)ncn2)CC1` [Example 5, (6-{4-[(1S)-1-(4-Fluorophenyl)-ethyl]-piperazin-1-yl}-pyrimidin-4-yl)-quinolin-7-yl-amine], 206 to 207 °C.

Usually melting point stands for the temperature of the solid-liquid transition.
